Here are results for eight compounds from US20220112165A1, “PEGYLATED PRODRUGS OF PHENOLIC TRPV1 AGONISTS” (priority 2018, published 2022).

Read-outs that look alike come from different tables or passages of the source.

The series is described as follows: In vitro (pH stability) assay: intramolecular cyclization-release of capsaicin from the prodrug in buffer. It is filed as physicochemical. The following applies: for stability at pH 4.5 at room temperature in comparison to the non-acylated prodrug (compound 6): pH 4.5, RT. The method, then:
The compounds described herein are examples of pH activated prodrugs whereby upon exposure to a specific pH, the half-life of the intramolecular cyclization-release reaction is determined. The intramolecular cyclization-release reaction results in the concomitant formation of a cyclic urea with the release of the parent drug.
Compounds were incubated in the buffer/biological media indicated. The reactions were conducted at either room temperature or 37° C. In some embodiments, additional common ingredients/formulations which may be used in buffers for the testing of the cyclization-release of the compounds described herein include but are not limited to: N-(2-Acetamido)-2-aminoethanesulfonic acid, N-(2-Acetamido)iminodiacetic acid, 2-Amino-2-methyl-1,3-propanediol, salts of bicarbonate, N,N-Bis(2-hydroxyethyl)glycine, 2-Bis(2-hydroxyethyl)amino-2-(hydroxymethyl)-1,3-propanediol, 3-(Cyclohexylamino)-1-propanesulfonic acid, 2-(Cyclohexylamino)ethanesulfonic acid, salts of carbonate, salts of citrate, 4-(2-Hydroxyethyl)-1-piperazinepropanesulfonic acid, salts of glycine, salts of Glycyl-glycine, 4-(2-Hydroxyethyl)piperazine-1-ethanesulfonic acid, 4-Morpholineethanesulfonic acid, 4-Morpholinepropanesulfonic acid, 1,4-Piperazinediethanesulfonic acid, salts of phosphate, salts of tartrate, 2-[(2-Hydroxy-1,1-bis(hydroxymethyl)ethyl)amino]ethanesulfonic acid, Tris(2-hydroxyethyl)amine, and salts of EDTA.
Samples were collected at specific time points, quenched with a 1.0% TFA in acetonitrile solution to stop the cyclization-release reaction and analyzed by HPLC for formation of released capsaicin, cyclic urea by-product, and consumption of starting compound in plasma and cerebrospinal fluid (CSF).

[1] abbreviates: buffer (simulated physiological conditions), simulated physiological conditions, pH 7.4 & 37° C., read-out: half-life of conversion to capsaicin.
The mark [2] stands for this setting: pH = 4.5 (0.1M aqueous sodium acetate buffer), RT, read-out: Intramolecular Cyclization-Release Half-life (T1/2) at pH 4.5 & RT (converted).
The mark [3] stands for this setting: pH = 7.4 (0.2M aqueous tris buffer), 37° C., read-out: Intramolecular Cyclization-Release Half-life (T1/2) at pH 7.4 & 37° C.

Turning to `CNCC1CN(C(=O)CCOCCOCCOCCOC)CCN1C(=O)Oc1ccc(CNC(=O)CCCC/C=C/C(C)C)cc1OC` (stereo not drawn) [Compound 1, (E)-2-methoxy-4-((8-methylnon-6-enamido)methyl)phenyl 2-((methylamino)methyl)-4-(2,5,8,11-tetraoxatetradecan-14-oyl)piperazine-1-carboxylate], the “stability at pH 4.5 at room temperature in comparison to the non-acylated prodrug (compound 6)” value is “significant and unexpected increase in stability”. Also, under setting [1], the half-life was < 5 min. In addition, the half-life under setting [2] is 2600 min. The half-life under setting [3] was ~0.8 min.

On to `CNCC1CN(C(=O)CCOCCOCCOCCOCCOCCOCCOC)CCN1C(=O)Oc1ccc(CNC(=O)CCCC/C=C/C(C)C)cc1OC` (stereo not drawn) [Compound 2, (E)-2-methoxy-4-((8-methylnon-6-enamido)methyl)phenyl 2-((methylamino)methyl)-4-(2,5,8,11,14,17,20-heptaoxatricosan-23-oyl)piperazine-1-carboxylate], for which the “stability at pH 4.5 at room temperature in comparison to the non-acylated prodrug (compound 6)” value was “significant and unexpected increase in stability”. Moreover, the half-life under setting [1] was < 5 min. Also, under setting [2], the half-life was 2450 min. For the same compound, under setting [3], the half-life is ~0.7 min.

`CNCC1CN(C(=O)CCOCCOCCOCCOCCOCCOCCOCCOCCOCCOC)CCN1C(=O)Oc1ccc(CNC(=O)CCCC/C=C/C(C)C)cc1OC` (stereo not drawn) [Compound 3, (E)-2-methoxy-4-((8-methylnon-6-enamido)methyl)phenyl 4-(2,5,8,11,14,17,20,23,26,29-decaoxadotriacontan-32-oyl)-2-((methylamino)methyl)piperazine-1-carboxylate]: the “stability at pH 4.5 at room temperature in comparison to the non-acylated prodrug (compound 6)” value is “significant and unexpected increase in stability”. For the same compound, the half-life under setting [1] was < 5 min. Under setting [2], the half-life was 3060 min. For the same compound, under setting [3], the half-life was ~0.8 min.

With `CNCC1CN(C(=O)CCOCCOCCOCCOCCOCCOCCOCCOCCOCCOCCOCCOCCOC)CCN1C(=O)Oc1ccc(CNC(=O)CCCC/C=C/C(C)C)cc1OC` (stereo not drawn) [Compound 4, (E)-2-methoxy-4-((8-methylnon-6-enamido)methyl)phenyl 4-(2,5,8,11,14,17,20,23,26,29,32,35,38-tridecaoxahentetracontan-41-oyl)-2-((methylamino)methyl)piperazine-1-carboxylate], the half-life is < 5 min under setting [1] and ~0.6 min under setting [3].

Turning to `CNCC1CNCCN1C(=O)Oc1ccc(CNC(=O)CCCC/C=C/C(C)C)cc1OC` (stereo not drawn) [Compound 5], the half-life under setting [1] is < 5 min and the half-life under setting [3] was ~0.4 min.

As for `CNCC1CN(C)CCN1C(=O)Oc1ccc(CNC(=O)CCCC/C=C/C(C)C)cc1OC` (stereo not drawn) [Compound 6, (E)-2-methoxy-4-((8-methylnon-6-enamido)methyl)phenyl 4-methyl-2-((methylamino)methyl)piperazine-1-carboxylate], the half-life under setting [1] is < 5 min, the half-life under setting [2] is 78 min and the half-life under setting [3] was ~0.8 min.

On to `CNCC1CN(C(C)=O)CCN1C(=O)Oc1ccc(CNC(=O)CCCC/C=C/C(C)C)cc1OC` (stereo not drawn) [Compound 7, (E)-2-methoxy-4-((8-methylnon-6-enamido)methyl)phenyl 4-acetyl-2-((methylamino)methyl)piperazine-1-carboxylate], for which the “stability at pH 4.5 at room temperature in comparison to the non-acylated prodrug (compound 6)” value is “significant and unexpected increase in stability”. Also, the half-life under setting [1] is < 5 min. Besides, the half-life under setting [2] was 6930 min. In addition, under setting [3], the half-life was ~0.9 min.

Regarding `CCOC(=O)N1CCN(C(=O)Oc2ccc(CNC(=O)CCCC/C=C/C(C)C)cc2OC)C(CNC)C1` (stereo not drawn) [Compound 8, (E)-4-ethyll-(2-methoxy-4-((8-methylnon-6-enamido)methyl)phenyl) 2-((methylamino)methyl)piperazine-1,4-dicarboxylate], the “stability at pH 4.5 at room temperature in comparison to the non-acylated prodrug (compound 6)” value is “significant and unexpected increase in stability”. In addition, the half-life under setting [1] was < 5 min. The half-life under setting [2] is 2770 min. In addition, the half-life under setting [3] is ~1.3 min.
